Read-outs that look alike come from different tables or passages of the source.
What was measured:
[1] = target: Human α2δ-1 subunit of Cav2.2 calcium channel (Homo sapiens, UniProt P54289); assay: Human α2δ-1 subunit of Cav2.2 calcium channel assay ([3H]-Gabapentin binding)
Procedure: Human α2δ-1 subunit of Cav2.2 calcium channel assay
Human α2δ-1 enriched membranes (2.5 µg) were incubated with 15 nM of radiolabeled [3H]-Gabapentin in assay buffer containing Hepes-KOH 10mM, pH 7.4. NSB (non specific binding) was measured by adding 10 µM pregabalin. The binding of the test compound was measured at either one concentration (% inhibition at 1 or 10 µM) or five different concentrations to determine affinity values (Ki). After 60 min incubation at 27 °C, binding reaction was terminated by filtering through Multiscreen GF/C (Millipore) presoaked in 0.5 % polyethyleneimine in Vacuum Manifold Station, followed by 3 washes with ice-cold filtration buffer containing 50 mM Tris-HCl, pH 7.4. Filter plates were dried at 60 °C for 1 hour and 30 µl of scintillation cocktail were added to each well before radioactivity reading. Readings were performed in a Trilux 1450 Microbeta radioactive counter (Perkin Elmer).

[2] = target: T1, Human µ-opioid receptor (Homo sapiens, UniProt P35372); assay: Human µ-opioid receptor radioligand assay ([3H]-DAMGO); type: binding
T1 construct: expressed in transfected cells; host or cells: CHO-K1
T1 sequence (P35372 whole entry): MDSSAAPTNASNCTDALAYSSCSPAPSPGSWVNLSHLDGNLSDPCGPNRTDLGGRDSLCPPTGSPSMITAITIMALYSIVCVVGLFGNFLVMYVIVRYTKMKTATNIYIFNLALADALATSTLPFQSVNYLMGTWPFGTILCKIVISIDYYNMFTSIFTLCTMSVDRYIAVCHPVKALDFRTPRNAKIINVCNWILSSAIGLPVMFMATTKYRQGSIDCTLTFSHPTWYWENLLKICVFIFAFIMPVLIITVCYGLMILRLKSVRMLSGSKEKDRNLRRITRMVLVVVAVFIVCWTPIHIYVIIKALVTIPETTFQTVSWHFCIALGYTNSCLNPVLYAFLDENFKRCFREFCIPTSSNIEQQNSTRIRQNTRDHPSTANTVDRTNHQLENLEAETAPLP
Procedure: Human µ-opioid receptor radioligand assay
Transfected CHO-K1 cell membranes (20 µg) were incubated with [^3H]-DAMGO (1 nM) in assay buffer containing Tris-HCl 50 mM, MgCl2 5 mM at pH 7.4. NBS (non-specific binding) was measured by adding 10 µM Naloxone. The binding of the test compound was measured at either one concentration (% inhibition at 1 or 10 µM) or five different concentrations to determine affinity values (Ki). Plates were incubated at 27 °C for 60 min. After the incubation period, the reaction mixture was then transferred to MultiScreen HTS, FC plates (Millipore), filtered and plates were washed 3 times with ice-cold 10 mM Tris-HCl (pH 7.4). Filters were dried and counted at approximately 40% efficiency in a MicroBeta scintillation counter (Perkin-Elmer) using EcoScint liquid scintillation cocktail.

[3] = transfected CHO-K1 cell membranes, [3H]-DAMGO 1 nM, read-out: µ-binding
[4] = human α2δ-1 enriched membranes, [3H]-Gabapentin 15 nM, read-out: α2δ-1 binding

Chain of Human α2δ-1 subunit of Cav2.2 calcium channel (P54289 25-1103): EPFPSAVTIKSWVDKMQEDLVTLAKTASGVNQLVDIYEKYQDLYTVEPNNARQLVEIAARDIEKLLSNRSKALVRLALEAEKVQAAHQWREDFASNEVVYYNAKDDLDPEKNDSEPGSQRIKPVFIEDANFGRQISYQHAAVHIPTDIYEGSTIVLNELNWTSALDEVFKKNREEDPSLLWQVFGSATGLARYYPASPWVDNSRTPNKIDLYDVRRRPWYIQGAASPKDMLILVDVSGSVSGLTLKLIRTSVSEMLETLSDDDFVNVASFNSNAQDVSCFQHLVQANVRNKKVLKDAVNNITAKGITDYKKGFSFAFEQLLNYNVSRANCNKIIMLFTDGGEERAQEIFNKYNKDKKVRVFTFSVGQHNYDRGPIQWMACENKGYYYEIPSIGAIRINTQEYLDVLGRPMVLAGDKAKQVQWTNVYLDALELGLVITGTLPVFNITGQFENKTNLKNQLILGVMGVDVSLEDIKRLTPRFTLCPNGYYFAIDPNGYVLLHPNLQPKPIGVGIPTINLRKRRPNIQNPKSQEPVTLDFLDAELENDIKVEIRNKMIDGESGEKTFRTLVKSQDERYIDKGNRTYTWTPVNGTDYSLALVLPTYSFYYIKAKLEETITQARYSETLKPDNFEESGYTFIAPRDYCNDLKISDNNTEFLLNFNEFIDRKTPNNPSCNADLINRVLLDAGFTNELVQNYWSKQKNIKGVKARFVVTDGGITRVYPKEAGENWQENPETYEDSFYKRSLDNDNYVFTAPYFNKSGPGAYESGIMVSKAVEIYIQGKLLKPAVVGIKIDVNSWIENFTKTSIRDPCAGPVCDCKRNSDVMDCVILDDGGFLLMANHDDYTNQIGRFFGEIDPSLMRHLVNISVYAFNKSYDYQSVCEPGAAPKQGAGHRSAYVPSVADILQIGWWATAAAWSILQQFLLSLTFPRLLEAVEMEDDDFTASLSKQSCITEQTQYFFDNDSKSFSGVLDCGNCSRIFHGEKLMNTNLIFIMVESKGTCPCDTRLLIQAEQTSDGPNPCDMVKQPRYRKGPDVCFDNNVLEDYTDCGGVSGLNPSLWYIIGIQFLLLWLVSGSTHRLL

| Structure (SMILES) | Ki [1] [nM] | Ki [2, 3] [nM] | Ki [1, 4] [nM] | Ki [2] [nM] |
| --- | --- | --- | --- | --- |
| CCC[C@H](c1cnc2ccc(N3CCC(c4cccc(O)c4)(N(C)C)CC3)cc2n1)N1C[C@@H](C)N[C@@H](C)C1 [Example 34, 3-(4-(Dimethylamino)-1-(3-((R)-1-((3S,5R)-3,5-dimethylpiperazin-1-yl)butyl)quinoxalin-6-yl)piperidin-4-yl)phenol] | < 500 | < 100 | – | – |
| CCC[C@H](c1cc2ccc(CN3CCC(c4cccc(O)c4)(N(C)C)CC3)cc2nc1CC)N1C[C@@H](C)N[C@@H](C)C1 [Example 23, 3-(4-(Dimethylamino)-1-((3-((R)-1-((3S,5R)-3,5-dimethylpiperazin-1-yl)butyl)-2-ethylquinolin-7-yl)methyl)piperidin-4-yl)phenol] | < 500 | < 100 | – | – |
| CCC[C@H](c1cnc2ccc(CN3CCC(c4cccc(O)c4)(N(C)C)CC3)cc2c1)N1C[C@@H](C)N[C@@H](C)C1 [Example 16, 3-(4-(Dimethylamino)-1-((3-((R)-1-((3S,5R)-3,5-dimethylpiperazin-1-yl)butyl)quinolin-6-yl)methyl)piperidin-4-yl)phenol] | < 500 | < 100 | – | – |
| CCCC(c1cnc2ccc(N3CCC(c4cccc(O)c4)(N(C)C)CC3)cc2c1)N1C[C@@H](C)N[C@@H](C)C1 (stereo partly drawn) [Example 14, 3-(4-(Dimethylamino)-1-(3-(1-((3S,5R)-3,5-dimethylpiperazin-1-yl)butyl)quinolin-6-yl)piperidin-4-yl)phenol] | < 500 | > 500 | – | – |
| CCC[C@H](c1cnc2ccc(CN3CCC(c4ccccc4)(N(C)C)CC3)cc2c1)N1C[C@@H](C)N[C@@H](C)C1 [Example 18, 1-((3-((R)-1-((3S,5R)-3,5-Dimethylpiperazin-1-yl)butyl)quinolin-6-yl)methyl)-N,N-dimethyl-4-phenylpiperidin-4-amine] | – | – | 500 to 5000 | 100 to 500 |
| CCC[C@@H](c1ccc2cc(CN3CCC(c4cccc(O)c4)(N(C)C)CC3)ccc2n1)N1C[C@@H](C)N[C@@H](C)C1 [Example 11, 3-(4-(Dimethylamino)-1-((2-((S)-1-((3S,5R)-3,5-dimethylpiperazin-1-yl)butyl)quinolin-6-yl)methyl)piperidin-4-yl)phenol] | – | – | 500 to 5000 | < 100 |
| CCCC(c1cc2cc(CN3CCC(c4cccc(O)c4)(N(C)C)CC3)ccc2nc1CC)N1C[C@@H](C)N[C@@H](C)C1 (stereo partly drawn) [Example 22, 3-(4-(Dimethylamino)-1-((3-(1-((3S,5R)-3,5-dimethylpiperazin-1-yl)butyl)-2-ethylquinolin-6-yl)methyl)piperidin-4-yl)phenol] | – | – | 500 to 5000 | < 100 |
| CCC[C@@H](c1cnc2cc(CN3CCC(c4ccccc4)(N(C)C)CC3)ccc2c1)N1C[C@@H](C)N[C@@H](C)C1 [Example 13, 1-((3-((S)-1-((3S,5R)-3,5-Dimethylpiperazin-1-yl)butyl)quinolin-7-yl)methyl)-N,N-dimethyl-4-phenylpiperidin-4-amine] | – | – | > 5000 | 100 to 500 |
| CCC[C@H](c1ccc2cc(CN3CCC(c4cccc(O)c4)(N(C)C)CC3)ccc2n1)N1C[C@@H](C)N[C@@H](C)C1 [Example 10, 3-(4-(Dimethylamino)-1-((2-((R)-1-((3S,5R)-3,5-dimethylpiperazin-1-yl)butyl)quinolin-6-yl)methyl)piperidin-4-yl)phenol] | < 500 | < 100 | – | – |
| CCCC(c1ccc2cc(N3CCC(c4cccc(O)c4)(N(C)C)CC3)ccc2n1)N1C[C@@H](C)N[C@@H](C)C1 (stereo partly drawn) [Example 3, 3-(4-(Dimethylamino)-1-(2-(1-((3S,5R)-3,5-dimethylpiperazin-1-yl)butyl)quinolin-6-yl)piperidin-4-yl)phenol] | – | – | 500 to 5000 | < 100 |
| CCC[C@H](c1ncc2cc(N3CCC(c4cccc(O)c4)(N(C)C)CC3)ccc2n1)N1C[C@@H](C)N[C@@H](C)C1 [Example 26, 3-(4-(Dimethylamino)-1-(2-((R)-1-((3S,5R)-3,5-dimethylpiperazin-1-yl)butyl)quinazolin-6-yl)piperidin-4-yl)phenol] | > 5000 | < 100 | – | – |
| CCCC(c1nc2ccc(CN3CCC(c4cccc(O)c4)(N(C)C)CC3)cc2nc1CC)N1C[C@@H](C)N[C@@H](C)C1 (stereo partly drawn) [Example 40, 3-(4-(Dimethylamino)-1-((2-(1-((3S,5R)-3,5-dimethylpiperazin-1-yl)butyl)-3-ethylquinoxalin-6-yl)methyl)piperidin-4-yl)phenol] | < 500 | < 100 | – | – |
| CCC[C@@H](c1ncc2cc(N3CCC(c4cccc(O)c4)(N(C)C)CC3)ccc2n1)N1C[C@@H](C)N[C@@H](C)C1 [Example 27, 3-(4-(Dimethylamino)-1-(2-((S)-1-((3S,5R)-3,5-dimethylpiperazin-1-yl)butyl)quinazolin-6-yl)piperidin-4-yl)phenol] | > 5000 | < 100 | – | – |
| CCCC(c1cnc2cc(CN3CCC(c4cccc(O)c4)(N(C)C)CC3)ccc2c1)N1C[C@@H](C)N[C@@H](C)C1 (stereo partly drawn) [Example 6, 3-(4-(Dimethylamino)-1-((3-(1-((3S,5R)-3,5-dimethylpiperazin-1-yl)butyl)quinolin-7-yl)methyl)piperidin-4-yl)phenol] | < 500 | < 100 | – | – |
| CCC[C@@H](c1cnc2ccc(CN3CCC(c4cccc(O)c4)(N(C)C)CC3)cc2c1)N1C[C@@H](C)N[C@@H](C)C1 [Example 17, 3-(4-(Dimethylamino)-1-((3-((S)-1-((3S,5R)-3,5-dimethylpiperazin-1-yl)butyl)quinolin-6-yl)methyl)piperidin-4-yl)phenol] | – | – | > 5000 | < 100 |
| CCC[C@@H](c1nc2ccc(CN3CCC(c4cccc(O)c4)(N(C)C)CC3)cc2nc1CC)N1C[C@@H](C)N[C@@H](C)C1 [Example 42, 3-(4-(Dimethylamino)-1-((2-((S)-1-((3S,5R)-3,5-dimethylpiperazin-1-yl)butyl)-3-ethylquinoxalin-6-yl)methyl)piperidin-4-yl)phenol] | – | – | 500 to 5000 | < 100 |
| CCC[C@H](c1cnc2cc(N3CCC(c4cccc(O)c4)(N(C)C)CC3)ccc2c1)N1C[C@@H](C)N[C@@H](C)C1 [Example 4, 3-(4-(Dimethylamino)-1-(3-((R)-1-((3S,5R)-3,5-dimethylpiperazin-1-yl)butyl)quinolin-7-yl)piperidin-4-yl)phenol] | – | – | 500 to 5000 | < 100 |
| CCC[C@@H](c1cnc2ccc(CN3CCC(c4ccccc4)(N(C)C)CC3)cc2c1)N1C[C@@H](C)N[C@@H](C)C1 [Example 19, 1-((3-((S)-1-((3S,5R)-3,5-Dimethylpiperazin-1-yl)butyl)quinolin-6-yl)methyl)-N,N-dimethyl-4-phenylpiperidin-4-amine] | – | – | > 5000 | < 100 |
| CCC[C@H](c1cnc2cc(CN3CCC(c4ccccc4)(N(C)C)CC3)ccc2c1)N1C[C@@H](C)N[C@@H](C)C1 [Example 12, 1-((3-((R)-1-((3S,5R)-3,5-Dimethylpiperazin-1-yl)butyl)quinolin-7-yl)methyl)-N,N-dimethyl-4-phenylpiperidin-4-amine] | < 500 | 100 to 500 | – | – |
| CCC[C@@H](c1cnc2cc(CN3CCC(c4cccc(O)c4)(N(C)C)CC3)ccc2c1)N1C[C@@H](C)N[C@@H](C)C1 [Example 9, 3-(4-(Dimethylamino)-1-((3-((S)-1-((3S,5R)-3,5-dimethylpiperazin-1-yl)butyl)quinolin-7-yl)methyl)piperidin-4-yl)phenol] | – | – | 500 to 5000 | < 100 |
| CCC[C@@H](c1cnc2ccc(N3CCC(c4cccc(O)c4)(N(C)C)CC3)cc2n1)N1C[C@@H](C)N[C@@H](C)C1 [Example 35, 3-(4-(Dimethylamino)-1-(3-((S)-1-((3S,5R)-3,5-dimethylpiperazin-1-yl)butyl)quinoxalin-6-yl)piperidin-4-yl)phenol] | – | – | 500 to 5000 | 100 to 500 |
| CCCC(c1cnc2cc(N3CCC(c4cccc(O)c4)(N(C)C)CC3)ccc2c1)N1C[C@@H](C)N[C@@H](C)C1 (stereo partly drawn) [Example 2, 3-(4-(Dimethylamino)-1-(3-(1-((3S,5R)-3,5-dimethylpiperazin-1-yl)butyl)quinolin-7-yl)piperidin-4-yl)phenol] | – | – | 500 to 5000 | < 100 |
| CCC[C@H](c1ncc2cc(CN3CCC(c4cccc(O)c4)(N(C)C)CC3)ccc2n1)N1C[C@@H](C)N[C@@H](C)C1 [Example 29, 3-(4-(Dimethylamino)-1-((2-((R)-1-((3S,5R)-3,5-dimethylpiperazin-1-yl)butyl)quinazolin-6-yl)methyl)piperidin-4-yl)phenol] | – | – | 500 to 5000 | < 100 |
| CCC[C@@H](c1ncc2cc(CN3CCC(c4cccc(O)c4)(N(C)C)CC3)ccc2n1)N1C[C@@H](C)N[C@@H](C)C1 [Example 30, 3-(4-(Dimethylamino)-1-((2-((S)-1-((3S,5R)-3,5-dimethylpiperazin-1-yl)butyl)quinazolin-6-yl)methyl)piperidin-4-yl)phenol] | – | – | > 5000 | < 100 |

Reference: EP3753932A1, “SUBSTITUTED BICYCLIC DERIVATIVES HAVING MULTIMODAL ACTIVITY AGAINST PAIN” (priority 2019, dated 2020)
